In the assay the target is T1, hMC2 receptor (crude hMC2R membranes from CRE-bla-CHO-K1 cells stably expressing hMC2 receptor and hMRAP accessory protein) (Homo sapiens, UniProt Q01718).
T1 construct: crude membrane fractions
The assay can be described thus: hMC2 membrane binding assay ([125I]ACTH (1-39) Tyr23, SPA). The following applies: displacement of 0.2 nM [125I]ACTH (1-39) Tyr23 from hMC2R membranes, 1.5 hours at room temperature; read-out: MC2R binding potency. In a few lines:
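Crude membranes from CRE-bla-CHO-K1 cells stably co-expressing hMC2R and hMRAP, premixed with WGA PVT SPA beads in pH 7.4 HEPES buffer (5 mM MgCl2, 1 mM CaCl2, 0.20% BSA, protease inhibitors). Compounds compete with [125I]ACTH(1-39) Tyr23, read by scintillation. Ki from non-linear regression.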

T1 sequence (Q01718 whole entry): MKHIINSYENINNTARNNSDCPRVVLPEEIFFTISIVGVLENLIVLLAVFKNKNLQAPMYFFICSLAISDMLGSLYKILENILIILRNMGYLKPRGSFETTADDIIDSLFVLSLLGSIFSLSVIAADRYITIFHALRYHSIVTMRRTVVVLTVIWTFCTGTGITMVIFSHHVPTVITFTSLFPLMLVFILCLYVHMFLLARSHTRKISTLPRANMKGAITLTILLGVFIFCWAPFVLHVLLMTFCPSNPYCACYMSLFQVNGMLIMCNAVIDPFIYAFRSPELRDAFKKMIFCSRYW
T1 sequence (Q8TCY5 whole entry partner): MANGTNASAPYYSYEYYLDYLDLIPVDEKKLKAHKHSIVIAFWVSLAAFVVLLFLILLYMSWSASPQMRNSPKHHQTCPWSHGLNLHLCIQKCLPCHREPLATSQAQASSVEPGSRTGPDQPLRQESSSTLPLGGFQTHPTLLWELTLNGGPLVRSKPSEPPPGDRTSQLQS

Turning to `COc1ccccc1-c1ncc(C2(NC(=O)N[C@@H]3CCN(C)C3)CCN(c3ccc(C(F)(F)F)cc3C#N)CC2)cc1F` [Compound 2-52, 1-{1-[2-cyano-4-(trifluoromethyl)phenyl]-4-[5-fluoro-6-(2-methoxyphenyl)pyridin-3-yl]piperidin-4-yl}-3-[(3R)-1-methylpyrrolidin-3-yl]urea], the Ki was less than 10 nM.

Values taken from patent US12492181B2, “Gem-disubstituted piperidine melanocortin subtype-2 receptor (MC2R) antagonists and uses thereof” (Crinetics Pharmaceuticals, Inc., priority 2019, dated 2025).
